Data taken from paper PMC4727778, “Synthesis and Antifungal Evaluation of Novel N-Alkyl Tetra- and Perhydroquinoline Derivatives” (Scientia Pharmaceutica, 2014).
pIC50: −log10 of the molar value. ≈ marks a conversion by molar mass, not a printed value. Structures can show the parent of a compound that is named as a salt.

Columns and labels:
Yarrowia lipolytica = test: Microdilution assay (MIC); format: cell-based; settings: hydrochlorides used, arithmetic average of two determinations, read-out: Minimal inhibitory concentration (MIC)
Experimental: (§1) For comparison, the N-undecylperhydroisoquinoline (C) was also tested here. For solubility reasons, the hydrochlorides were used in this assay (Table 2).

Saccharomyces cerevisiae = test: Microdilution assay (MIC); format: cell-based; settings: hydrochlorides used, arithmetic average of two determinations, read-out: Minimal inhibitory concentration (MIC)
Experimental: as §1

Candida glabrata = test: Microdilution assay (MIC); format: cell-based; settings: Nakaseomyces glabratus, hydrochlorides used, arithmetic average of two determinations, read-out: Minimal inhibitory concentration (MIC)
Experimental: as §1

[1] = system: human leukemia cell line (HL 60); test: MTT test (cytotoxicity); format: cell-based; settings: HL 60 cell line, arithmetic average of three determinations
Experimental: The cytotoxicity of the compounds 3a–d, 5a–d, and 8b was determined in an MTT test against a human leukemia cell line (HL 60).

Δ8,7-isomerase [2] = molecular target: T1, Δ8,7-isomerase (Saccharomyces cerevisiae, UniProt P32352); test: Whole-cell assay for identification of the target enzyme in ergosterol biosynthesis (sterol pattern by GLC-MS); format: cell-based; settings: Candida glabrata and Saccharomyces cerevisiae incubated with test compound, lichesterol accumulation indicates Δ8,7-isomerase inhibition
T1 construct: whole-cell assay for identification of the target enzyme in ergosterol biosynthesis; endogenous in cells; host or cells: Saccharomyces cerevisiae and Candida glabrata whole cells
T1 sequence (P32352 whole entry, stated change not applied): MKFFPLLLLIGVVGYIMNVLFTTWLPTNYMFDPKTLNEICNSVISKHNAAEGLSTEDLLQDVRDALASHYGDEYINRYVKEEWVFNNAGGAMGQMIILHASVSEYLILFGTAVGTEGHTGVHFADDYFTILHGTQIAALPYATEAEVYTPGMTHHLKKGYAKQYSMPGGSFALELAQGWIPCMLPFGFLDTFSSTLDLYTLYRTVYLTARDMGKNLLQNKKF
Experimental: The compounds 5c and 7 were also subjected to our whole-cell assay for identification of the target enzyme in ergosterol biosynthesis. In this assay, the strains Candida glabrata and Saccharomyces cerevisiae were incubated with the test compounds, and after cell lysis, the changes in the sterol pattern were analyzed by GLC-MS. The accumulation of the Δ8(9)-sterol lichesterol (ergosta-5,8,22-trien-3β-ol) clearly indicates an inhibition of the enzyme Δ8,7-isomerase.

Δ8,7-isomerase [3] = system: Δ8,7-isomerase; set-up: method as in PMID 24464607; settings: cited from earlier work
[4] = system: Yarrowia lipolytica (DSMZ-Nr. 1345); test: Agar diffusion assay; format: cell-based; settings: Y. lipolytica, GI = growth inhibition, read-out: diameter of zones of total inhibition
Experimental: (§2) The resulting compounds and known compounds, 1-undecylpiperidine (7) and 1-decylpiperazine (8a), as well as 1-methyl-4-undecylpiperazine (8b) (prepared in the same way), were tested in an agar diffusion assay against Gram-positive (Staphylococcus equorum (DSMZ-Nr. 20675), Streptococcus entericus (DSZM-Nr. 14446)) and Gram-negative bacteria (Escherichia coli (DSMZ-Nr. 426), Pseudomonas marginalis (DSMZ-Nr. 7527)), as well as the fungi Yarrowia lipolytica (DSMZ-Nr. 1345), Candida glabrata (DSMZ-Nr.11226), Aspergillus niger (DSMZ-Nr. 1988), and Hyphopichia burtonii (DSMZ-Nr. 70663) (Table 1).

[5] = system: Pseudomonas marginalis (DSMZ-Nr. 7527); test: Agar diffusion assay; format: cell-based; settings: P. marginalis, GI = growth inhibition, read-out: diameter of zones of total inhibition
Experimental: as §2

[6] = system: Staphylococcus equorum (DSMZ-Nr. 20675); test: Agar diffusion assay; format: cell-based; settings: read-out: diameter of zones of total inhibition
Experimental: as §2

[7] = system: Aspergillus niger (DSMZ-Nr. 1988); test: Agar diffusion assay; format: cell-based; settings: A. niger, GI = growth inhibition, read-out: diameter of zones of total inhibition
Experimental: as §2

[8] = system: Hyphopichia burtonii (DSMZ-Nr. 70663); test: Agar diffusion assay; format: cell-based; settings: H. burtonii, GI = growth inhibition, read-out: diameter of zones of total inhibition
Experimental: as §2

[9] = system: Candida glabrata (DSMZ-Nr.11226); test: Agar diffusion assay; format: cell-based; settings: Nakaseomyces glabratus, C. glabrata, GI = growth inhibition, read-out: diameter of zones of total inhibition
Experimental: as §2

[10] = system: Streptococcus entericus (DSZM-Nr. 14446); test: Agar diffusion assay; format: cell-based; settings: S. entericus, GI = growth inhibition, read-out: diameter of zones of total inhibition
Experimental: as §2

[11] = system: Escherichia coli (DSMZ-Nr. 426); test: Agar diffusion assay; format: cell-based; settings: E. coli, GI = growth inhibition, read-out: diameter of zones of total inhibition
Experimental: as §2

Candida spp. = system: Candida spp.; set-up: method as in earlier work; settings: printed in the Candida glabrata column; cited from earlier work

Compound	MIC (Yarrowia lipolytica)	MIC (Saccharomyces cerevisiae)	MIC (Candida glabrata)	pIC50 [1]	change in sterol pattern / target enzyme in ergosterol biosynthesis (Δ8,7-isomerase [2])	change in sterol pattern / target enzyme in ergosterol biosynthesis (Δ8,7-isomerase [2]; listed as N-undecylperhydroquinoline)	antifungal mechanism (enzyme inhibited) (Δ8,7-isomerase [3])	zone of inhibition at 50 µg/disc [4]	zone of inhibition at 50 µg/disc [5]	zone of inhibition at 50 µg/disc [6]	zone of inhibition at 50 µg/disc [7]	zone of inhibition at 50 µg/disc [8]	zone of inhibition at 50 µg/disc [9]	zone of inhibition at 50 µg/disc [10]	zone of inhibition at 50 µg/disc [11]	MIC90 Candida spp. (Candida spp.)
CCCCCCCCCCCN1CCC[C@@H]2CCCC[C@H]21 (racemic) [Compound 5c, (±)-trans-1-Undecyldecahydroquinoline hydrochloride]	5 µg/mL	0.25 µg/mL	25 µg/mL	5.15	accumulation of lichesterol	inhibitor of Δ8,7-isomerase										
CCCCCCCCCCCCN1CCC[C@@H]2CCCC[C@H]21 (racemic) [Compound 5d, (±)-trans-1-Dodecyldecahydroquinoline hydrochloride]	2.5 µg/mL	2.5 µg/mL	5 µg/mL	5.22												
CCCCCCCCCCCN1CC[C@H]2CCCC[C@@H]2C1 (relative stereo) [C, N-n-undecyl-trans-decahydroisoquinoline, reference compound]	1.75 µg/mL (≈ 5.96 µM)	0.1 µg/mL (≈ 0.341 µM)	5 µg/mL (≈ 17 µM)				potent antifungal inhibiting the enzyme Δ8,7-isomerase									
CCCCCCCCCCCN1CCCCC1 [Compound 7, 1-undecylpiperidine, reference compound]	7.5 µg/mL (≈ 31.3 µM)	1.75 µg/mL (≈ 7.31 µM)	12.5 µg/mL (≈ 52.2 µM)		accumulation of lichesterol			22 mm	8 mm	13 mm	0 mm	12 mm	8 mm	17 mm	7 mm	
CCCCCCCCCCCN1CCN(C)CC1 [Compound 8b, 1-methyl-4-undecylpiperazine, reference compound]	10 µg/mL (≈ 39.3 µM)	50 µg/mL (≈ 196 µM)	25 µg/mL (≈ 98.2 µM)	4.34				25 mm	15 mm	18 mm	12 mm	14 mm	11 mm	15 mm	10 mm	
Clc1ccccc1C(c1ccccc1)(c1ccccc1)n1ccnc1 [clotrimazole, reference compound]								15 mm			15 mm	25 mm	13 mm			1 (MIC90 Candida spp.) [17] µg/mL
OC(Cn1cncn1)(Cn1cncn1)c1ccc(F)cc1F [fluconazole]																32 (MIC90 Candida spp.) [17] µg/mL
nystatine B																4 (MIC90 Candida spp.) [17] µg/mL
